Values of other authors in US9131678B1, “Ultraviolet strategy for avian repellency” (The United States of America, as represented by the …, priority 2009, dated 2015).

Tests used:
[1] = system: male red-winged blackbirds; settings: 2,500 ppm caffeine, male red-winged blackbirds in captivity
Blackbirds = settings: rice seeds treated with 10,000 ppm caffeine, field conditions; >80% of untreated rice seeds consumed

In the case of `Cn1c(=O)c2c(ncn2C)n(C)c1=O` [caffeine], the “reduction of rice consumption” value [1] is listed as 76% and the rice seeds consumed (Blackbirds) is listed as < 10%.
